From publication PMC12594101, “Biphasic control of the B cell transcriptome by mTORC1 and GSK3” (Cell reports, 2025)

What was measured:
GSK3B = GSK3B (Homo sapiens, UniProt P49841); experiment: in vitro HotSpot kinase assay (Reaction Biology), 10-dose IC50 in triplicate; type: biochemical
GSK3A = GSK3A (Homo sapiens, UniProt P49840); experiment: as above; type: biochemical
Chain of GSK3A (P49840 2-483): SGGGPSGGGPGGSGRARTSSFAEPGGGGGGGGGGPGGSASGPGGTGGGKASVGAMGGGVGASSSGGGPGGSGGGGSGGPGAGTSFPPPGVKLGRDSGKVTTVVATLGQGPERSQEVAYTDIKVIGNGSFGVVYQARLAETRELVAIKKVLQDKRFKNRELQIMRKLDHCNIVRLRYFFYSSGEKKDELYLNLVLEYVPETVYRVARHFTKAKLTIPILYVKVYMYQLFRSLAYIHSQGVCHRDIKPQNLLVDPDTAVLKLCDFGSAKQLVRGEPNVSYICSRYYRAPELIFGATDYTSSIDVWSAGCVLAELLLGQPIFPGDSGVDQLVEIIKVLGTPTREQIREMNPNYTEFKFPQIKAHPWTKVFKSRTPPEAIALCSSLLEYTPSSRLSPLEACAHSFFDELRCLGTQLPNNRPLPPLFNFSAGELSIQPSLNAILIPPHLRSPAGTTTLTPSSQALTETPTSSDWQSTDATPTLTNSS

Chain of GSK3B (P49841 whole entry): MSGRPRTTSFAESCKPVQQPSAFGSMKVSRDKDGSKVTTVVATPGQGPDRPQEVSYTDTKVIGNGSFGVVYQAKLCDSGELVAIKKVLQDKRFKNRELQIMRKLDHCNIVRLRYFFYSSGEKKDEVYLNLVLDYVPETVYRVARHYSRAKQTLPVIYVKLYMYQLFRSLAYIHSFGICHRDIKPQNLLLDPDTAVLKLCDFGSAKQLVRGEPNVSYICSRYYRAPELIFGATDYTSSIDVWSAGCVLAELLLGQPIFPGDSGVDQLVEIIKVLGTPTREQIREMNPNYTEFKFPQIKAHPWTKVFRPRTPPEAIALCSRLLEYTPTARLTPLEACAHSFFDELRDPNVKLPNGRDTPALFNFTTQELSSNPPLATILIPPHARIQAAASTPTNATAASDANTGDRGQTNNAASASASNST

`CCn1cc(C(=O)O)c(=O)c2c(N)c(F)c(NC3CCCCC3)cc21` [AS1842856] showed an IC50 (GSK3B) of 2.8 nM and an IC50 (GSK3A) of 2.8 nM.
